Experiment [1] concerns TOR2-mTOR L2185G mutant. The experiment is described as follows: Yeast spotting assay for drug resistance, TOR2-mTOR L2185G. In kind it is cell-based, S. cerevisiae. The conditions noted are these: 37° C., with amphotericin B. An excerpt:
(§1) FIGS. 4A-C. […] (FIG. 4A) Scheme of a yeast-based screen for drug-resistant mutations in mTOR kinase domain. mTOR kinase domain is amplified by error-prone PCR to generate randomized mutations, which is then recombined in frame into the TOR2-mTOR plasmid by gap-repair in tort-dg cells, and is selected on SC-leucine minus plates. Replica plating is then made onto SC-leucine plates containing DMSO or mTOR kinase inhibitor for selection of drug resistant clones. (FIG. 4B) tor2-dg cells expressing WT or mutant TOR2-mTOR were serially diluted by 10-fold and assayed for sensitivity to different mTOR kinase inhibitors in the presence of amphotericin B. Vector and TOR2 were used as controls. Drug resistant assay was performed at 37° C. in the presence of amphotericin B (except OSI-027). (FIG. 4C) Systematic mutational analysis of L2185 on drug resistance. tort-dg cells expressing WT or mutant TOR2-mTOR carrying all possible mutations at L2185 were serially diluted by 10-fold and tested for sensitivity to different mTOR kinase inhibitors at 37° C.
(§2) To enhance yeast cell permeability, log phase W303 tort-dg cells were spread evenly on SD-Leu agarose plates. After drying, small sterile filter discs were placed on the surface and 5 μl of indicated mTOR inhibitors or DMSO were applied to each disc with or without adding 5 μl of amphotericin B (10 μM), miconazole (50 μM) or caspofungin (50 μM). Plates were incubated at 37° C. for 3 day. Drug resistance profiles of TOR2-mTOR mutant cells were determined by the spotting assay. For this assay, 10-fold serial dilutions of cells were spotted on SD-leu plates in the presence of indicated mTOR inhibitors with or without amphotericin B (200 nM) and incubated at 37° C. for 3 day.

Experiment [2] deals with TOR2-mTOR L2185N mutant. The experiment can be described thus: Yeast spotting assay for drug resistance, TOR2-mTOR L2185N. Format: cell-based, S. cerevisiae. Conditions: 37° C., with amphotericin B.
Description: as §1, §2

Experiment [3] concerns TOR2-mTOR L2185D mutant. The experiment can be described thus: Yeast spotting assay for drug resistance, TOR2-mTOR L2185D. Format: cell-based, S. cerevisiae. Conditions: 37° C., with amphotericin B.
Description: as §1, §2

Experiment [4] has as its system TOR2-mTOR L2185C mutant. The experiment is described as follows: Yeast spotting assay for drug resistance, TOR2-mTOR L2185C. Format: cell-based, S. cerevisiae.
Description: as §1, §2

For experiment [5], the system named is TOR2-mTOR L2185A mutant. The experiment can be described thus: Yeast spotting assay for drug resistance, TOR2-mTOR L2185A. In kind it is cell-based, S. cerevisiae.
Description: as §1, §2

Experiment [6] has as its system SW480 colorectal cancer cells carrying L2185A mutant mTOR alleles. The experiment is described as follows: SRB growth assay of SW480 cells carrying L2185A mutant mTOR. In kind it is cell-based, human. Conditions: various concentrations, 2 day. The method, then: (§3) (FIG. 5A) SW480 cells carrying homozygous WT mTOR or L2185A mutant alleles were treated with various concentrations of AZD8055, INK-128, OSI-027 and PP242 for 2 day. Growth of SW480 cells was measured by SRB assay. Data represent means±SD in three independent experiments. (FIG. 5B) SW480 cells carrying homozygous WT and L2185A mutant mTOR allele were treated with a single dose of AZD8055 (100 nM), INK-128 (100 nM), OSI-027 (6,000 nM), and PP242 (2,000 nM) for different times. Cell growth was measured by SRB assay. The drug carrier DMSO was used as a control. Data represent means±SD in three independent experiments. (FIG. 5C) SW480 cells carrying homozygous WT and L2185A mutant mTOR were treated with various concentrations of INK-128, OSI-027, AZD8055 and PP242 for 1 hr. The effect on the level of P-S6K, S6K, P-4E-BP1, 4EB-P1, P-AKT and AKT was analyzed by immunoblot. […] The growth of SW480 cells was measured by SRB assay. Data represent means±SD in three independent experiments.
Cancer cell lines were maintained in DMEM or RPMI 1640, supplemented with 10% fetal bovine serum (Invitrogen) and 1% penicillin/streptomycin (Invitrogen). CRISPR/cas9 technology was used to engineer mutant mTOR allele in SW480 colorectal and H460 lung cancer cells. Briefly, The target sequence for mTOR, […] (SEQ ID NO: 3 was designed through the online tool at crispr.mit.edu, and cloned into pSPCas9(BB)-2A-GFP vector (PX458 in Addgene). Genomic mTOR mutation was engineered using a protocol as described (Ran, et al. (2013). Nature protocols 8, 2281-2308) and was confirmed by targeted sequencing.
(§4) Antibodies against tubulin, S6K, phospho-S6K (Thr389), 4E-BP1, phospho-4E-BP1 (Thr37/46), Akt, phospho-Akt (Thr308), and phospho-Akt (Ser473) were purchased from Cell Signaling Technology. […] For drug sensitivity test, cancer cells were seeded in 96-well plates at a density of 2,000 cells per well. 24 hours later, different concentrations of mTOR inhibitors were added in quadruplicate. Cell growth was measured by the sulforhodamine B (SRB) assay as previously described (Vichai, V., and Kirtikara, K. (2006). Nature protocols 1, 1112-1116).

Experiment [7] relates to mTORC1 and mTORC2 signaling in SW480 mTOR(L2185A) cells. The experiment can be described thus: mTORC1/mTORC2 signaling immunoblot in SW480 cells carrying L2185A mutant mTOR. In kind it is cell-based, human. The conditions noted are these: various concentrations, 1 hr, immunoblot of P-S6K, P-4E-BP1, P-AKT. On the procedure: as §3, §4
In general terms: A western blot detects proteins with antibodies after separation by electrophoresis.

Experiment [8] deals with T1, tor2-dg cells expressing TOR2-mTOR (UniProt P32600+P42345, A1929L/A1944S/A1986S/A2056E/A2073S/C1999R/C2085L/C2133A/D1912T/D1918E/D1933G/D1947H/D2096N/DUP2140-2140/E1921Q/E2000I/E2014H/E2032D/E2033D/E2049A/E2059K/E2080D/G1897S/G1954S/G2046K/G2092K/H1915G/H1958L/H1988Q/H2028Y/H2055Y/H2106N/I1939L/I1957L/I1964L/I1973V/I2021V/K1928N/K1993S/K1996E/K2045E/K2066R/K2087N/K2095S/L1923M/L1952I/L1956S/L1995I/L2037Q/L2103I/M2010E/M2011L/M2026Q/M2058L/M2079N/M2089K/M2132S/N1898S/N1899S/N1920T/N1989K/N1992L/N1997K/N2003P/N2071Q/N2093D/P1951Q/Q1937E/Q1959S/Q2007D/Q2063E/Q2072N/Q2082Y/R1890H/R1896E/R1950N/R1966K/R2042H/R2086M/R2110K/R2134H/S1980I/S2112G/S2120T/T1903A/T1948Q/T1962S/T1977M/T1983E/T1984S/T1985L/T2004V/T2068I/T2098N/T2119Q/V1906L/V1919A/V1924H/V1927F/V2019M/V2044T/V2050A/W1916I/Y1913F/Y1967A/Y2038F/Y2074F/Y2125H).
T1 construct: fused in frame with mTOR kinase domain (2140-2549 aa); yeast TOR2 N-terminus (1-2080 aa); expressed in transfected cells; host or cells: S. cerevisiae W303 tor2-dg, centromeric plasmid derived from pML40-TOR2
The experiment is described as follows: Disc halo assay of tor2-dg cells expressing TOR2-mTOR, with or without antifungal permeability enhancers. Format: cell-based, S. cerevisiae. The conditions noted are these: filter discs supplemented with amphotericin B (10 μM), miconazole (50 μM) or caspofungin (50 μM); 37° C., 3 day. On the procedure: FIGS. 2A-C. Enhancement of yeast cell permeability to structurally diverse mTOR kinase inhibitors by amphotericin B. (FIG. 2A) tor2-dg cells expressing TOR2-mTOR were spread on synthetic complete (SC)-leucine plate and tested for drug sensitivity by disc halo assay using filter discs containing different mTOR kinase inhibitors supplemented with the drug carrier DMSO or amphotericin B (10 μM). (FIG. 2B) Similar to FIG. 2A except the filter discs were supplemented with miconazole (50 μM). (FIG. 2C) Similar to FIG. 2A except the filter discs were supplemented with caspofungin (50 μM).
as §2

[9] abbreviates: 37° C., amphotericin B present (except OSI-027).

Structures are written as SMILES. Entries after “also recorded” stand apart in the source; their conditions may differ. Like-named read-outs stand apart in the source and are kept apart here.

T1 sequence (P32600+P42345 fused with the stated changes): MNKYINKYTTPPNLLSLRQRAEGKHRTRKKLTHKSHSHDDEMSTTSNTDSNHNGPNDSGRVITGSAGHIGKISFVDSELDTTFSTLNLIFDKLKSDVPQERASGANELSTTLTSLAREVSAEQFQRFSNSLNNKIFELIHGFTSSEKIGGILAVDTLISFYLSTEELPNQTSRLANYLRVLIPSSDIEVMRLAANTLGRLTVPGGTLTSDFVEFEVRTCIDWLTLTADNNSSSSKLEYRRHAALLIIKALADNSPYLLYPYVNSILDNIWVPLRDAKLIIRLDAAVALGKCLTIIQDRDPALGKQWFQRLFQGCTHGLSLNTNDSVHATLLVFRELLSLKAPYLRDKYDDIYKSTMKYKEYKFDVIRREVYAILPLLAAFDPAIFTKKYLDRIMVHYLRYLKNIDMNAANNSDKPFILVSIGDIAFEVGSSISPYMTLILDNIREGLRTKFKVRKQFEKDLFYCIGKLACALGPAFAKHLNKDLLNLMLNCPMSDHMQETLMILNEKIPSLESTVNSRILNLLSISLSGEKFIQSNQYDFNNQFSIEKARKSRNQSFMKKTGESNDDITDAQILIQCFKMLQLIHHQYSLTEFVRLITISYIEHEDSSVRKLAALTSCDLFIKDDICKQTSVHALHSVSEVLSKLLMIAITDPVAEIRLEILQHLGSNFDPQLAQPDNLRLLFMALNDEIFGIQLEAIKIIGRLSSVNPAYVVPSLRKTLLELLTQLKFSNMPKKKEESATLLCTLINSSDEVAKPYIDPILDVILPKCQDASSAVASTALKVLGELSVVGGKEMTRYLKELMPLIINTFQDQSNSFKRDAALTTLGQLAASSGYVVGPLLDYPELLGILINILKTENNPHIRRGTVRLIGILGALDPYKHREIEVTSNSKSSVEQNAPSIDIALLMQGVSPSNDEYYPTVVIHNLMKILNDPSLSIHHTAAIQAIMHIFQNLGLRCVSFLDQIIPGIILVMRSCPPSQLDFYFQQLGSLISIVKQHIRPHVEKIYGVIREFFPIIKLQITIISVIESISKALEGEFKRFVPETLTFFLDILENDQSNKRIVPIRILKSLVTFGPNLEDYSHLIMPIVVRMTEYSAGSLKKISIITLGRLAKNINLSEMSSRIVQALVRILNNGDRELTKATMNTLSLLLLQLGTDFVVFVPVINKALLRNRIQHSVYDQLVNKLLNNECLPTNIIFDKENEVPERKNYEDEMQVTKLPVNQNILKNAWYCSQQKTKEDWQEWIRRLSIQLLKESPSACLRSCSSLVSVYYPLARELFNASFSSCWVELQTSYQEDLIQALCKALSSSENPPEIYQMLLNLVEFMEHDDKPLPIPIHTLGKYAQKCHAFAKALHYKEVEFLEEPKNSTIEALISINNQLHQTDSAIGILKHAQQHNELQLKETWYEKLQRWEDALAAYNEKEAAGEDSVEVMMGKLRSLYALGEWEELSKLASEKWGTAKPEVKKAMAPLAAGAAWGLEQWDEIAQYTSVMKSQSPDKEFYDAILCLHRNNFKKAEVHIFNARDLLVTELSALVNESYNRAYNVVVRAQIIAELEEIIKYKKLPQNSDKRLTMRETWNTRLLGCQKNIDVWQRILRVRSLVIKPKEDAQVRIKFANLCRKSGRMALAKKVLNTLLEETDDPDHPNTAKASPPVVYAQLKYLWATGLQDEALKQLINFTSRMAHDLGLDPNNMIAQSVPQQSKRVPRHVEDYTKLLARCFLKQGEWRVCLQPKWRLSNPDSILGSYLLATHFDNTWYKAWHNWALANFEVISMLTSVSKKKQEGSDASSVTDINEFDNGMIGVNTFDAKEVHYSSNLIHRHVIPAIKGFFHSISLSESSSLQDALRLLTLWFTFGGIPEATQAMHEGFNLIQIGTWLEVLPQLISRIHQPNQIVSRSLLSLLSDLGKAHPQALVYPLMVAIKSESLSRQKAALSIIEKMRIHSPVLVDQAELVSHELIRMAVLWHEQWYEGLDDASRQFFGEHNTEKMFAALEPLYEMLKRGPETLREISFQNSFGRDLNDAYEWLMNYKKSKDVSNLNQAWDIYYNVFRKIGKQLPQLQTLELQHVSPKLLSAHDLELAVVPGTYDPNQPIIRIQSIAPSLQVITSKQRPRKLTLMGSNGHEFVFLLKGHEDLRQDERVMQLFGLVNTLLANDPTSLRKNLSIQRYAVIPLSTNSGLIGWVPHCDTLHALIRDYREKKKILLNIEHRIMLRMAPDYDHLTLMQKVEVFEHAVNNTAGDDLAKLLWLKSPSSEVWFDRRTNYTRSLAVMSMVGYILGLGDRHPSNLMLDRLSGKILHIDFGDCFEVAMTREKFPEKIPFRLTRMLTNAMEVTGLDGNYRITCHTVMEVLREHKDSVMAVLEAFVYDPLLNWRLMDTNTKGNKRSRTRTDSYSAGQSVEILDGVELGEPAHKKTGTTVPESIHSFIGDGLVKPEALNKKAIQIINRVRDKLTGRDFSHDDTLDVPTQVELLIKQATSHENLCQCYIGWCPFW
T1 sequence (P41318 whole entry partner, the tested form may be a part): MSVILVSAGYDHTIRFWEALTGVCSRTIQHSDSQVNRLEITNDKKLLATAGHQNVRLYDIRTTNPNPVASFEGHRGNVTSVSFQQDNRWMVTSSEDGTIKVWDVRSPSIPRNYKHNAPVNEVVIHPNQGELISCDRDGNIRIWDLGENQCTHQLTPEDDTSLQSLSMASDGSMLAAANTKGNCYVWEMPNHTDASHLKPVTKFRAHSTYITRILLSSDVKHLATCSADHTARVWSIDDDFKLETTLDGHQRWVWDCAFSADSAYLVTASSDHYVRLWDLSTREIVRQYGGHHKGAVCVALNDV

In the case of `COc1ccc(-c2ccc3c(N4CCOC[C@@H]4C)nc(N4CCOC[C@@H]4C)nc3n2)cc1CO` [AZD8055], the “drug resistance of TOR2-mTOR L2185G mutant yeast” value in experiment [1] was “moderately resistant”. Further, the “drug resistance of TOR2-mTOR L2185N mutant yeast” value in experiment [2] is listed as “moderately resistant”. Further, the “drug resistance of TOR2-mTOR L2185D mutant yeast” value in experiment [3] is listed as “moderately resistant”. For the same compound, the “drug resistance/sensitivity of TOR2-mTOR L2185C mutant yeast” value in experiment [4] (setting [9]) is given as “confer resistance; also recorded: conferring resistance”. In addition, in experiment [5] (setting [9]), the “drug resistance/sensitivity of TOR2-mTOR L2185A mutant yeast” value is on record as “confer resistance; also recorded: conferring resistance”. In experiment [6], the “drug resistance/sensitivity of cell growth, SW480 L2185A vs WT” value (from here on “drug resistance/sensitivity … vs WT”) is on record as “confers resistance”. In addition, in experiment [7], the “drug resistance of mTORC1 and mTORC2 signaling, SW480 L2185A vs WT” value is “drug-resistant signaling by both mTORC1 and mTORC2”.
With `CN(C)C1CCN(C(=O)c2ccc(NC(=O)Nc3ccc(-c4nc(N5CCOCC5)nc(N5CCOCC5)n4)cc3)cc2)CC1` [PKI-587], in experiment [1], the “drug resistance of TOR2-mTOR L2185G mutant yeast” value was “moderately resistant”. The “drug resistance of TOR2-mTOR L2185N mutant yeast” value in experiment [2] was “moderately resistant”. For the same compound, the “drug resistance of TOR2-mTOR L2185D mutant yeast” value in experiment [3] was “moderately resistant”. Besides, the “drug resistance/sensitivity of TOR2-mTOR L2185C mutant yeast” value in experiment [4] is “conferring resistance”. For the same compound, the “drug resistance/sensitivity of TOR2-mTOR L2185A mutant yeast” value in experiment [5] is reported as “conferring resistance”.
On to `CC[C@H](C)C[C@H](C)CCCCCCCCC(=O)N[C@H]1C[C@@H](O)[C@@H](NCCN)NC(=O)[C@@H]2[C@@H](O)CCN2C(=O)[C@H]([C@H](O)CCN)NC(=O)[C@H]([C@H](O)[C@@H](O)c2ccc(O)cc2)NC(=O)[C@@H]2C[C@@H](O)CN2C(=O)[C@H]([C@@H](C)O)NC1=O` [caspofungin], for which the “effect of antifungal drug on yeast sensitivity to mTOR kinase inhibitors” value (from here on “effect … to mTOR kinase inhibitors”) in experiment [8] was “fail to do so”.
On to `C[C@@H]1[C@H](O)[C@@H](C)/C=C/C=C/C=C/C=C/C=C/C=C/C=C/[C@H](O[C@@H]2O[C@H](C)[C@@H](O)[C@H](N)[C@@H]2O)C[C@@H]2O[C@](O)(C[C@@H](O)C[C@@H](O)[C@H](O)CC[C@@H](O)C[C@@H](O)CC(=O)O[C@H]1C)C[C@H](O)[C@H]2C(=O)O` [Amphotericin B], for which the “effect … to mTOR kinase inhibitors” value in experiment [8] is listed as “increases yeast sensitivity to most of mTOR kinase inhibitors”.
Take `CC(C)n1nc(-c2cc3cc(O)ccc3[nH]2)c2c(N)ncnc21` [PP242]: the “drug resistance/sensitivity … vs WT” value in experiment [6] is “confers resistance”. The “drug resistance of mTORC1 and mTORC2 signaling, SW480 L2185A vs WT” value in experiment [7] was “drug-resistant signaling by both mTORC1 and mTORC2”.
For the compound `COc1ccc(-c2cc3c(C)nc(N)nc3n([C@H]3CC[C@H](OCCO)CC3)c2=O)cn1` [PF-04691502], the “drug resistance of TOR2-mTOR L2185G mutant yeast” value in experiment [1] was “moderately resistant”. Further, the “drug resistance of TOR2-mTOR L2185N mutant yeast” value in experiment [2] is reported as “moderately resistant”. Also, in experiment [3], the “drug resistance of TOR2-mTOR L2185D mutant yeast” value is “moderately resistant”. Besides, the “drug resistance/sensitivity of TOR2-mTOR L2185C mutant yeast” value in experiment [4] (setting [9]) was “confer resistance; also recorded: conferring resistance”. The “drug resistance/sensitivity of TOR2-mTOR L2185A mutant yeast” value in experiment [5] (setting [9]) is recorded as “confers resistance; also recorded: conferring resistance”. The “drug resistance/sensitivity … vs WT” value in experiment [6] is reported as “still sensitive”.
`Clc1ccc(COC(Cn2ccnc2)c2ccc(Cl)cc2Cl)c(Cl)c1` (centres unmarked) [miconazole]: the “effect … to mTOR kinase inhibitors” value in experiment [8] is “fail to do so”.
